Holding throughout (assay type): binding
Series [1] has as its system RNA strand (5′-AGCAAAAAACGC-3′). Briefly: Melting point (Tm) measurement, duplex-forming capacity with RNA strand. The following applies: 100 mM NaCl, 10 mM Na2HPO4 buffer (pH7.2), [strand] = 4 μM, average of 3 or more experiments. As for the experimental part:
(§1) The oligonucleotide analogues (1) to (5) and (13) to (17) synthesized in the Examples (i.e., antisense strands), and a sense strand of a natural DNA or RNA oligonucleotide were annealed. The melting points (Tm) of the annealing products were measured to investigate the duplex-forming capacity of the antisense strands.
(§2) Sample solutions (500 μL) with end concentrations of NaCl 100 mM, sodium phosphate buffer (pH 7.2) 10 mM, antisense strand 4 μM, and sense strand 4 μM were bathed in boiling water, and cooled down to room temperature over the course of 10 hours. A stream of nitrogen was flowed through a cell chamber of a spectrophotometer (Beckman, DU-650) to prevent dew formation, and the sample solutions were gradually cooled down to 5° C. Further, the sample solutions were maintained at 10° C. for 20 minutes, and then their measurements were started. The temperature was raised up to 90° C. at a rate of 0.5° C./min, and the ultraviolet absorption at 260 nm was measured.

For series [2], the system named is DNA strand (5′-AGCAAAAAACGC-3′). The series is described as follows: Melting point (Tm) measurement, duplex-forming capacity with DNA strand. The following applies: 100 mM NaCl, 10 mM Na2HPO4 buffer (pH7.2), [strand] = 4 μM, average of 3 or more experiments. Here is the method: as §1, §2
For series [3], the system named is dsDNA 5′-d(GCTGCT AAAAAGAAAGAGAGATCGTCG)-3′ / 3′-d(CGACGATTTTTCTTTCTCTCTAGCAGC)-5′. The series is described as follows: Tm measurement, triplex-forming capacity with dsDNA, with MgCl2 (Table 5-2). The following applies: 140 mM KCl, 10 mM MgCl2, 7 mM Na2HPO4 buffer (pH 7.0), each strand 1.5 μM. As for the experimental part:
as §2
(§3) In connection with the oligonucleotide analogues (6) to (11) and (18) to (21) synthesized in the Examples, the triplex-forming capacity with the target double-stranded DNA's indicated below was investigated by the same method as in Experimental Example 1. The salt concentrations and pH during measurement complied with the conditions described below the respective tables.

Series [4] deals with dsDNA 5′-d(GCT AAAAAGAAAGAGAGATCG)-3′ / 3′-d(CGATTTTTCTTTCTCTCTAGC)-5′. The series is described as follows: Tm measurement, triplex-forming capacity with dsDNA (Table 5-1). The following applies: 140 mM KCl, 7 mM Na2HPO4 buffer (pH 7.0), each strand 1.5 μM. As for the experimental part: as §2, §3
Series [5] concerns dsDNA 5′-d([…])-3′ / 3′-d(CGATTTTTCTNTCTCTCTAGC)-5′. Briefly: Sequence selective triplex-formation, match and mismatch dsDNA (Table 5-3). The following applies: for Tm: 140 mM KCl, 7 mM sodium phosphate buffer (pH 7.0), each strand 1.5 μM. As for the experimental part:
as §2, §3

As for “5′-GCGTTTTTTGCT-3′ (unmodified DNA) [natural antisense strand, reference compound]”, the figures for the Tm in series [1] and in series [2] were 45 °C and 50 °C, respectively.

On to “5′-TTTTT^mCTTT^mCT^mCT^mCT-3′ (TTTTTCTTTCTCTCT; all C 5-methyl, sugars by position and backbone not given here) [unmodified triplex-forming oligonucleotide, Z = natural T, reference compound]”, for which the Tm in series [3] amounted to 43 °C; in series [4], 33 °C; in series [5] (M·N = A·T (match)), 43 °C; in series [5] (M·N = C·G (mismatch)), 25 °C; in series [5] (M·N = G·C (mismatch)), 21 °C; in series [5] (M·N = T·A (mismatch)), 18 °C. Besides, the “ΔTm = Tm(mismatch) − Tm(match)” value was −18 °C in series [5] (M·N = C·G), −22 °C in series [5] (M·N = G·C) and −25 °C in series [5] (M·N = T·A).

For “5′-TTTTT^mCYYY^mCT^mCT^mCT-3′ [Oligonucleotide analogue (20)]”, the Tm in series [3] is 71 °C; in series [4], 59 °C. The ΔTm/modification result in series [3] is “+9.3 °C”; in series [4] it was “+8.7 °C”.

For the substance “5′-TTTTX^mCTXT^mCX^mCT^mCT-3′ [Oligonucleotide analogue (7)]”, in series [3], the Tm was 61 °C and the ΔTm/modification entry was “+6.0 °C”. In addition, in series [4], the Tm is 47 °C and the ΔTm/modification entry was “+4.6 °C”.

Turning to “5′-TTTTY^mCTYT^mCY^mCT^mCT-3′ [Oligonucleotide analogue (19)]”, the Tm in series [3] came to 73 °C; in series [4] it was 60 °C. In addition, the ΔTm/modification result in series [3] is “+10.0 °C”; in series [4], “+9.0 °C”.

Turning to “5′-TXTTX^mCTXT^mCX^mCTX*T-3′ [Oligonucleotide analogue (10)]”, the Tm in series [3] turned out to be 63 °C; in series [4], 50 °C. For the same substance, the ΔTm/modification result in series [3] is “+4.0 °C”; in series [4] it was “+3.4 °C”.

For the substance “5′-XTTTX^mCTTX^mCT^mCX^mCT-3′ [Oligonucleotide analogue (11)]”, in series [3], the Tm was determined as 59 °C and the ΔTm/modification entry was “+4.0 °C”. In series [4], the Tm stood at 45 °C and the ΔTm/modification result is “+3.0 °C”.

As to “5′-XTXTX^mCXTX^mCX^mCX^mCT-3′ [Oligonucleotide analogue (9)]”, in series [3], the Tm is greater than 80 °C and the ΔTm/modification entry is “> +5 °C”. Also, in series [4], the Tm worked out at 59 °C and the ΔTm/modification entry is “+3.7 °C”.

On to “5′-YTYTY^mCYTY^mCY^mCY^mCT-3′ [Oligonucleotide analogue (21)]”, for which the figures for the Tm in series [3] and in series [4] were greater than 80 °C and 78 °C, respectively. Also, the ΔTm/modification result in series [3] was “> +5 °C”; in series [4], “+6.4 °C”.

These data come from patent US20070167387A1, “Novel artificial nucleic acids of n-o bond crosslinkage type” (TAKESHI IMANISHI, priority 2003, published 2007).
